Legend:
Assay in all cases: KinomeScan
Format in all cases: binding
Conditions in all cases: read-out: % Ctrl @ 10000 nM
[1] = biological target: T1, RPS6KA2(Kin.Dom.-1-N-terminal) (Homo sapiens, UniProt Q15349)
T1 construct: RPS6KA2(Kin.Dom.-1-N-terminal); host or cells: E. coli host derived from BL21, T7 phage display
Experimental: (§1) Kinase assays: Assays were performed as described in Fabian et al. (2005) Nature Biotechnology, vol. 23, p. 329. Kinase-tagged T7 phage strains were grown in parallel in 24 or 96-well blocks in an E. coli host derived from the BL21 strain. E. coli were grown to log-phase and infected with T7 phage from a frozen stock (multiplicity of infection ˜0.1) and incubated with shaking at 32° C. until lysis (−90 minutes). The lysates were centrifuged and filtered to remove cell debris. […] The liganded beads were blocked with excess biotin and washed with blocking buffer (SeaBlock (Pierce), 1% BSA, 0.05% Tween 20, 1 mM DTT) to remove unbound ligand and to reduce non-specific phage binding.
(§2) Test compounds were prepared as 40× stocks in DMSO and diluted into the aqueous environment. 2.5% DMSO was added to control assays lacking a test compound. All reactions were performed in polystyrene 96-well plates that had been pretreated with blocking buffer in a final volume of 0.04 ml. […] The phage titer in the eluates was measured by quantitative PCR.

[2] = biological target: T2, AXL (Homo sapiens, UniProt P30530)
T2 construct: host or cells: E. coli host derived from BL21
Experimental: as §1, §2

[3] = biological target: T3, ARK5 (Homo sapiens, UniProt O60285)
T3 construct: host or cells: E. coli host derived from BL21
Experimental: as §1, §2

[4] = biological target: T4, RPS6KA2(Kin.Dom.-2-C-terminal) (Homo sapiens, UniProt Q15349)
T4 construct: RPS6KA2(Kin.Dom.-2-C-terminal); host or cells: E. coli host derived from BL21, T7 phage display
T4 sequence (Q15349 415-672 limits assumed): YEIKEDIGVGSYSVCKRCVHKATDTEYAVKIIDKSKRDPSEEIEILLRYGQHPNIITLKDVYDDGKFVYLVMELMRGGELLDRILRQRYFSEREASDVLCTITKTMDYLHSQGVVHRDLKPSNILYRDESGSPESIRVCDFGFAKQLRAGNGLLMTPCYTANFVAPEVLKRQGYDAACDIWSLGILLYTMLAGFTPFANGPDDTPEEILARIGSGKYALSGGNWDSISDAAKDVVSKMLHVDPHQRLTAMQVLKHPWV
Experimental: as §1, §2

[5] = biological target: T5, ERK2 (Homo sapiens, UniProt P28482)
T5 construct: purchased Ambit Biosciences Corp; host or cells: T7 phage in E. coli host derived from BL21
Experimental: as §1, §2

[6] = biological target: T6, DMPK2 (Homo sapiens, UniProt Q6DT37)
T6 construct: purchased Ambit Biosciences Corp (KinomeScan); host or cells: T7 phage in E. coli host derived from BL21
Experimental: as §1, §2

[7] = biological target: T7, TXK (Homo sapiens, UniProt P42681)
T7 construct: host or cells: E. coli host derived from BL21, T7 phage
Experimental: as §1, §2

[8] = biological target: T8, MST2 (Homo sapiens, UniProt Q13188)
T8 construct: host or cells: T7 phage grown in E. coli host derived from BL21
T8 sequence (Q13188 whole entry): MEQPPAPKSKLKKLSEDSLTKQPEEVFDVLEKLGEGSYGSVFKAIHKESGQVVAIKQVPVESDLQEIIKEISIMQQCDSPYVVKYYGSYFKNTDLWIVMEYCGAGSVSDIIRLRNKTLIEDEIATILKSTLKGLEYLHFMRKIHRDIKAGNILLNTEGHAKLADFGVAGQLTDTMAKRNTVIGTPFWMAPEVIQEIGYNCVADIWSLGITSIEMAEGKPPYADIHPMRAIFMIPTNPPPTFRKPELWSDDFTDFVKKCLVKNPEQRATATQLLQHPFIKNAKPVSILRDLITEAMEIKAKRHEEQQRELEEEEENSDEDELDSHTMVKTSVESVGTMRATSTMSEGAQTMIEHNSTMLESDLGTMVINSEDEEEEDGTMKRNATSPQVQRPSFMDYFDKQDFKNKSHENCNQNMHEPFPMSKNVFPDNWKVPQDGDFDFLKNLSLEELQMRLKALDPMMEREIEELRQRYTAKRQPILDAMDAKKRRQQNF
Experimental: as §1, §2

[9] = biological target: T9, ACVR2B (Homo sapiens, UniProt Q13705)
T9 construct: host or cells: E. coli (BL21-derived), T7 phage lysate
T9 sequence (Q13705 19-512): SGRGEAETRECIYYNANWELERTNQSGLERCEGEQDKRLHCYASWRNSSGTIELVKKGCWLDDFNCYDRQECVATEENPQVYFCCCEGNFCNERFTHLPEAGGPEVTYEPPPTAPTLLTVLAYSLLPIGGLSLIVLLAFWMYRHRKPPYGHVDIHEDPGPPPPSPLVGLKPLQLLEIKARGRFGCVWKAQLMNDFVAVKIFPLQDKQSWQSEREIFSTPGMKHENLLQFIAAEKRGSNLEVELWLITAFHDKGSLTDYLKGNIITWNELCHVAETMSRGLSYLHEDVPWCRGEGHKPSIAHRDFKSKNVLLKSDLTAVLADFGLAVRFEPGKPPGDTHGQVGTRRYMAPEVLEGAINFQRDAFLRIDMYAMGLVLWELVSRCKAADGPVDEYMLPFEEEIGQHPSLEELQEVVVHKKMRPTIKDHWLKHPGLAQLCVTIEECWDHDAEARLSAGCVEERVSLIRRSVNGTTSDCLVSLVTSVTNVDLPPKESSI
Experimental: as §1, §2

[10] = biological target: T10, PRKG1 (Homo sapiens, UniProt Q13976)
T10 construct: host or cells: T7 phage in E. coli host derived from BL21
Experimental: as §1, §2

[11] = biological target: T11, PRKR (Homo sapiens, UniProt P19525)
T11 construct: host or cells: T7 phage in E. coli host derived from BL21
Experimental: as §1, §2

[12] = biological target: T12, STK35 (Homo sapiens, UniProt Q8TDR2)
T12 construct: host or cells: T7 phage grown in E. coli (BL21-derived)
Experimental: as §1, §2

[13] = biological target: T13, PRKD1 (Homo sapiens, UniProt Q15139)
T13 construct: host or cells: T7 phage in E. coli host derived from BL21
Experimental: as §1, §2

[14] = biological target: T14, RET (Homo sapiens, UniProt P07949)
T14 construct: host or cells: E. coli host derived from BL21, T7 phage display
Experimental: as §1, §2

[15] = biological target: T15, ABL1(M351T) (Homo sapiens, UniProt P00519, M351T)
T15 construct: host or cells: E. coli (BL21-derived), T7 phage lysate
Experimental: as §1, §2

[16] = biological target: T16, PAK3 (Homo sapiens, UniProt O75914)
T16 construct: host or cells: E. coli host derived from BL21, infected with T7 phage
Experimental: as §1, §2

[17] = biological target: T17, IKK-epsilon (Homo sapiens, UniProt Q14164)
T17 construct: host or cells: T7 phage grown in E. coli host derived from BL21
T17 sequence (Q14164 whole entry): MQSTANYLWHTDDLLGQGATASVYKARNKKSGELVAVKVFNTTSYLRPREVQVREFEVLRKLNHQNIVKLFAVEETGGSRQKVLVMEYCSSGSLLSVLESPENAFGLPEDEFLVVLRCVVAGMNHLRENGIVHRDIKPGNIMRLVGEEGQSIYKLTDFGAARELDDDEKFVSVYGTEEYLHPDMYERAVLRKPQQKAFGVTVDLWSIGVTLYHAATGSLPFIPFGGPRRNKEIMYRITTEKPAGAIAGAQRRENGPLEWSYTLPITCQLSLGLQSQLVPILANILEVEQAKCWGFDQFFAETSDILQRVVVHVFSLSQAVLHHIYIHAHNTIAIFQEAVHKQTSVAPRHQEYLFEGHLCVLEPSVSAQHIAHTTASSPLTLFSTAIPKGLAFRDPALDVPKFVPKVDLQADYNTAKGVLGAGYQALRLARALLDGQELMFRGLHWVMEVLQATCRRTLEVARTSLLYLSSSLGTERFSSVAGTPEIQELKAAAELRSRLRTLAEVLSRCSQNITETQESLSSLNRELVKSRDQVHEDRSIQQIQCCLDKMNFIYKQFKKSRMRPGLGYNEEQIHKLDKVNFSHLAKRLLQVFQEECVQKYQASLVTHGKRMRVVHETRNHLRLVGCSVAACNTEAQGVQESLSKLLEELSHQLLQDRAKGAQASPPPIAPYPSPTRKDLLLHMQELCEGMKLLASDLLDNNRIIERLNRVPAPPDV
Experimental: as §1, §2

[18] = biological target: T18, BMPR1A (Homo sapiens, UniProt P36894)
T18 construct: host or cells: E. coli host derived from BL21
Experimental: as §1, §2

[19] = biological target: T19, DAPK1 (Homo sapiens, UniProt P53355)
T19 construct: purchased Ambit Biosciences Corp (KinomeScan); host or cells: T7 phage in E. coli host derived from BL21
Experimental: as §1, §2

[20] = biological target: T20, TAOK3 (Homo sapiens, UniProt Q9H2K8)
T20 construct: host or cells: T7 phage grown in E. coli (BL21-derived)
Experimental: as §1, §2

[21] = biological target: T21, MAP4K4 (Homo sapiens, UniProt O95819)
T21 construct: host or cells: E. coli host derived from the BL21 strain, infected with T7 phage
T21 sequence (O95819 whole entry): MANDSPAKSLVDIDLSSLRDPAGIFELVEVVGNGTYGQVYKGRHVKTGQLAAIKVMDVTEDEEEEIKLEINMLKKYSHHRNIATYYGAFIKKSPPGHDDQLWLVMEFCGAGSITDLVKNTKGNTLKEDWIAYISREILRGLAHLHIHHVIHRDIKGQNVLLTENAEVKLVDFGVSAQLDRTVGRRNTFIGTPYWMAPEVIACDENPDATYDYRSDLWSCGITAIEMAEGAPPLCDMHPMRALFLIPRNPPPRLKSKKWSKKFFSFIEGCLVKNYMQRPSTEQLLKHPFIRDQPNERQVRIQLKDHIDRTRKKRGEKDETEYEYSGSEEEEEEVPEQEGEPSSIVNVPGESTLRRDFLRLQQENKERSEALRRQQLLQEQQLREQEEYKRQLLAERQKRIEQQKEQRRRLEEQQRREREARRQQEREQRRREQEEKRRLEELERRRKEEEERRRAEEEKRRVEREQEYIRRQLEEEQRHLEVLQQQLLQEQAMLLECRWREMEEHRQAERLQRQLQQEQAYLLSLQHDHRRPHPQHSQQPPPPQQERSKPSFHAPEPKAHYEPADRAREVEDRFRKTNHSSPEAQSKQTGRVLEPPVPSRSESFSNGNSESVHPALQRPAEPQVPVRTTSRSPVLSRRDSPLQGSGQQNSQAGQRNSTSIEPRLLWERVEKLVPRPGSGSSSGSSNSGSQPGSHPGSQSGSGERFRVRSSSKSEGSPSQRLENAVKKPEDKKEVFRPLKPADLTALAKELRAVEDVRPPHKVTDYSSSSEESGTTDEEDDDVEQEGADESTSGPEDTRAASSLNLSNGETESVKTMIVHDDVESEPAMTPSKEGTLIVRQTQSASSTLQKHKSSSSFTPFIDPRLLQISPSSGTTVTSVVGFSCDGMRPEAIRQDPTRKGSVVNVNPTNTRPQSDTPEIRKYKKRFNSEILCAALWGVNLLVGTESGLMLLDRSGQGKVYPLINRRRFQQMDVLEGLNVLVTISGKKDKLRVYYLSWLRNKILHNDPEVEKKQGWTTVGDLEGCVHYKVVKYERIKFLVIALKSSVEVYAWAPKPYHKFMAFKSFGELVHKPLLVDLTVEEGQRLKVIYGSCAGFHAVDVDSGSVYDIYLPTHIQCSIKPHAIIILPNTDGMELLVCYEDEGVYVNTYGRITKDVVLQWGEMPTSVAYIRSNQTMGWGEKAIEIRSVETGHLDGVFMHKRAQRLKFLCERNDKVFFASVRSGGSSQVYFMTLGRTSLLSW
Experimental: as §1, §2

[22] = biological target: T22, PRKCH (Homo sapiens, UniProt P24723)
T22 construct: host or cells: T7 phage in E. coli host derived from BL21
Experimental: as §1, §2

[23] = biological target: T23, PKMYT1 (Homo sapiens, UniProt Q99640)
T23 construct: host or cells: T7 phage in E. coli host derived from BL21
Experimental: as §1, §2

[24] = biological target: T24, TAK1 (Homo sapiens, UniProt O43318)
T24 construct: host or cells: T7 phage grown in E. coli (BL21-derived)
Experimental: as §1, §2

[25] = biological target: T25, EPHA7 (Homo sapiens, UniProt Q15375)
T25 construct: purchased Ambit Biosciences Corp; host or cells: T7 phage in E. coli host derived from BL21
Experimental: as §1, §2

[26] = biological target: T26, RPS6KA6(Kin.Dom.-2-C-terminal) (Homo sapiens, UniProt Q9UK32)
T26 construct: RPS6KA6(Kin.Dom.-2-C-terminal); host or cells: T7 phage grown in E. coli (BL21-derived)
T26 sequence (Q9UK32 426-683 limits assumed): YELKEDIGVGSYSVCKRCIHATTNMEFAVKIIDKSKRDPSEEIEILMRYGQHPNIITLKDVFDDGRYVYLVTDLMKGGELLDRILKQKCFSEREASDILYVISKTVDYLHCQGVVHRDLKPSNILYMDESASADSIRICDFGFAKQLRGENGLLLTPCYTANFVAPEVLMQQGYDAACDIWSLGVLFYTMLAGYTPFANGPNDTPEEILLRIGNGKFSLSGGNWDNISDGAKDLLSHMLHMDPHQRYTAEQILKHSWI
Experimental: as §1, §2

[27] = biological target: T27, SIK2 (Homo sapiens, UniProt Q9H0K1)
T27 construct: host or cells: T7 phage grown in E. coli (BL21-derived)
Experimental: as §1, §2

[28] = biological target: T28, DMPK (Homo sapiens, UniProt Q09013)
T28 construct: purchased Ambit Biosciences Corp (KinomeScan); host or cells: T7 phage in E. coli host derived from BL21
Experimental: as §1, §2

[29] = biological target: T29, RIOK2 (Homo sapiens, UniProt Q9BVS4)
T29 construct: host or cells: E. coli host derived from BL21, T7 phage display
Experimental: as §1, §2

[30] = biological target: T30, PIM2 (Homo sapiens, UniProt Q9P1W9)
T30 construct: host or cells: T7 phage in E. coli host derived from BL21
T30 sequence (Q9P1W9 whole entry): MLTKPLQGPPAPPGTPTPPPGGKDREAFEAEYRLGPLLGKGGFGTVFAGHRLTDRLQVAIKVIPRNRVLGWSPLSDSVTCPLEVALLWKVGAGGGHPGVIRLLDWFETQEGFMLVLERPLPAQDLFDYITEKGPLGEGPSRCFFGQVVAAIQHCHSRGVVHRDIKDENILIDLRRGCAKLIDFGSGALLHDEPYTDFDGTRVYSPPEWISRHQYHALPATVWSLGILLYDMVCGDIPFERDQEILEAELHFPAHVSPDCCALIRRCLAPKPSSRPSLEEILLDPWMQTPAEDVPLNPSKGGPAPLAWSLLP
Experimental: as §1, §2

[31] = biological target: T31, RIPK1 (Homo sapiens, UniProt Q13546)
T31 construct: host or cells: E. coli host derived from BL21, T7 phage display
T31 sequence (Q13546 whole entry): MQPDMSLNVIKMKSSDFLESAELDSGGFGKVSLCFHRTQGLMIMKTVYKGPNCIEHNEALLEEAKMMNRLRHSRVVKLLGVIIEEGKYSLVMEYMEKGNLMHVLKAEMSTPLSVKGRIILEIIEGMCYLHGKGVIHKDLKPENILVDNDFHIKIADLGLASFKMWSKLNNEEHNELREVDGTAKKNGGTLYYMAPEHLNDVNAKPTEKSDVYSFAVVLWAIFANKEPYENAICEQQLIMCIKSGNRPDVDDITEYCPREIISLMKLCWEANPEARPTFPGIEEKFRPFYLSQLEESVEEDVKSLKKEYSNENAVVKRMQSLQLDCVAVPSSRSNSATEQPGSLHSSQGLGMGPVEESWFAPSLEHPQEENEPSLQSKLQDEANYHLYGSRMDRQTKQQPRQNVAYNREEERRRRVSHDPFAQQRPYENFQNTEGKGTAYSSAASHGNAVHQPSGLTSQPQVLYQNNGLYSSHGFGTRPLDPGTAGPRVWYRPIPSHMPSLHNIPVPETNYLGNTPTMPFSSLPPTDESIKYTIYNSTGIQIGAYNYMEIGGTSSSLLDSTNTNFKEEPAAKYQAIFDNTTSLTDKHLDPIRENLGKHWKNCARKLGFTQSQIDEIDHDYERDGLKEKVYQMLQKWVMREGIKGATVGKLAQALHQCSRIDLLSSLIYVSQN
Experimental: as §1, §2

T1 sequence (Q15349 59-318 limits assumed): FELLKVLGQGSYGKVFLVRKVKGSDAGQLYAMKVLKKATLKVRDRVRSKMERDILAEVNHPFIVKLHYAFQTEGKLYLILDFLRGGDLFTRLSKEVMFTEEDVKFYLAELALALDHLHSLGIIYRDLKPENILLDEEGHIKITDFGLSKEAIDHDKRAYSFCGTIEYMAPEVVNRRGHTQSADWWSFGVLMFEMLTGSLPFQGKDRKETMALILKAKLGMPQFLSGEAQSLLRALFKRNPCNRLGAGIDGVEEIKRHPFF

## C#Cc1cccc(Nc2ncnc3cc(OC)c(OCCCN4CCOCC4)cc23)c1 [NRC-2694, N-(3-ethynylphenyl)-7-methoxy-6-[3-(4-morpholinyl)propoxy]-4-quinazolinamine]
[1]
  remaining binding at 10 µM: 70%
[2]
  remaining binding at 10 µM: 25%
[3]
  remaining binding at 10 µM: 29%
[4]
  remaining binding at 10 µM: 78%
[5]
  remaining binding at 10 µM: 100%
[6]
  remaining binding at 10 µM: 61%
[7]
  remaining binding at 10 µM: 39%
[8]
  remaining binding at 10 µM: 85%
[9]
  remaining binding at 10 µM: 63%
[10]
  remaining binding at 10 µM: 75%
[11]
  remaining binding at 10 µM: 51%
[12]
  remaining binding at 10 µM: 52%
[13]
  remaining binding at 10 µM: 9.6%
[14]
  remaining binding at 10 µM: 65%
[15]
  remaining binding at 10 µM: 37%
[16]
  remaining binding at 10 µM: 55%
[17]
  remaining binding at 10 µM: 75%
[18]
  remaining binding at 10 µM: 100%
[19]
  remaining binding at 10 µM: 26%
[20]
  remaining binding at 10 µM: 76%
[21]
  remaining binding at 10 µM: 20%
[22]
  remaining binding at 10 µM: 83%
[23]
  remaining binding at 10 µM: 74%
[24]
  remaining binding at 10 µM: 66%
[25]
  remaining binding at 10 µM: 70%
[26]
  remaining binding at 10 µM: 55%
[27]
  remaining binding at 10 µM: 21%
[28]
  remaining binding at 10 µM: 6.8%
[29]
  remaining binding at 10 µM: 43%
[30]
  remaining binding at 10 µM: 83%
[31]
  remaining binding at 10 µM: 100%

Source: patent US8921362B2, “6,7-dialkoxy quinazoline derivatives and methods of treating drug resistant and other tumors” (Natco Pharma Limited, priority 2008, dated 2014)
